From ChEMBL document CHEMBL1137652, “Prevalence and expression of the plasmid-mediated quinolone resistance determinant qnrA1” (2007) come the findings set out here.

≈ marks a conversion by molar mass, not a printed value. Bounds are passed on as bounds.

Experiment [1] concerns Escherichia coli. Put plainly: Antimicrobial activity against azide-resistant aac(6')-Ib-cr deficient Escherichia coli J53 qnrA1 bearing pHS4 transconjugant from Enterobacter cloacae 91 by agar dilution method. In kind it is functional.
In experiment [2] the test system is Escherichia coli. In words: Antimicrobial activity against azide-resistant aac(6')-Ib-cr deficient Escherichia coli J53 qnrA1 bearing pHS5 transconjugant from Enterobacter cloacae 641 by agar dilution method. It is filed as functional. On the technique in general: In agar dilution, organisms are placed on agar that contains the substance at set levels.
Experiment [3] relates to Escherichia coli. In words: Antimicrobial activity against azide-resistant Escherichia coli J53 by agar dilution method. It is filed as functional.
For experiment [4], the system named is Escherichia coli. In words: Antimicrobial activity against azide-resistant aac(6')-Ib-cr expressing Escherichia coli J53 qnrA1 bearing pHS6 transconjugant from Escherichia coli 650 by agar dilution method. In kind it is functional.
The subject of experiment [5] is Escherichia coli. In words: Antimicrobial activity against azide-resistant aac(6')-Ib-cr expressing Escherichia coli J53 qnrA1 bearing pHS3 transconjugant from Citrobacter freundii 64 by agar dilution method. In kind it is functional.
In experiment [6] the test system is Escherichia coli. In words: Antibacterial activity against Escherichia coli isolate 1B harboring qnrA1 and blaVEB1 genes by agar dilution method.
The subject of experiment [7] is Enterobacter cloacae. Put plainly: Antimicrobial activity Enterobacter cloacae 641 expressing plasmid-mediated quinolone resistance qnr A gene by agar dilution method. In kind it is functional.
In experiment [8] the test system is Enterobacter cloacae. Put plainly: Antimicrobial activity Enterobacter cloacae 113 expressing plasmid-mediated quinolone resistance qnr A gene by agar dilution method. It is filed as functional.
Experiment [9] has as its system Enterobacter cloacae. Put plainly: Antimicrobial activity Enterobacter cloacae 63 expressing plasmid-mediated quinolone resistance qnr A gene by agar dilution method. It is filed as functional.
The test system of experiment [10] is Escherichia coli. Put plainly: microbe, parasite or virus in culture. The note with it: 650.
Description: (§1) Antimicrobial activity Escherichia coli 650 expressing plasmid-mediated quinolone resistance qnr A gene by agar dilution method
Experiment [11] has as its system Escherichia coli. Put plainly: Antimicrobial activity Escherichia coli 633 expressing plasmid-mediated quinolone resistance qnr A gene by agar dilution method. In kind it is functional.
Experiment [12] concerns Enterobacter cloacae. Put plainly: Antimicrobial activity Enterobacter cloacae 91 expressing plasmid-mediated quinolone resistance qnr A gene by agar dilution method. In kind it is functional.
The next experiment concerns Citrobacter freundii. In words: Antimicrobial activity Citrobacter freundii 64 expressing plasmid-mediated quinolone resistance qnr A gene by agar dilution method. It is filed as functional.
Experiment [13] relates to Escherichia coli. Put plainly: Antibacterial activity against Escherichia coli HB101 by agar dilution method. It is filed as functional.
Experiment [14] deals with Escherichia coli. In words: Antibacterial activity against pKK232-8-HS5-transformed Escherichia coli HB101 transformants harboring promoter sequence of qnrA1 gene cloned with promoterless cat gene by agar dilution method. It is filed as functional.
For experiment [15], the system named is Escherichia coli. Put plainly: Ratio of MIC for pKK232-8-HS6-transformed Escherichia coli HB101 transformants to MIC for pKK232-8-HS5-transformed Escherichia coli HB101 transformants. It is filed as functional.
Experiment [16] deals with Escherichia coli. In words: Antibacterial activity against pKK232-8-tranformed Escherichia coli HB101 transformants harboring promoterless cat gene by agar dilution method. It is filed as functional.
Experiment [17] has as its system Escherichia coli. Put plainly: Antibacterial activity against pKK232-8-HS6-transformed Escherichia coli HB101 transformants harboring promoter sequence of qnrA1 gene cloned with promoterless cat gene by agar dilution method. It is filed as functional.
The test system of experiment [18] is Escherichia coli. In words: Ratio of MIC for pKK232-8-HS6-transformed Escherichia coli HB101 transformants to MIC for pKK232-8-HS4-transformed Escherichia coli HB101 transformants. In kind it is functional.
The subject of experiment [19] is Escherichia coli. In words: Antibacterial activity against pKK232-8-HS3-transformed Escherichia coli HB101 transformants harboring promoter sequence of qnrA1 gene cloned with promoterless cat gene by agar dilution method. In kind it is functional.
Experiment [20] has as its system Escherichia coli. In words: Antibacterial activity against pKK232-8-HS4-transformed Escherichia coli HB101 transformants harboring promoter sequence of qnrA1 gene cloned with promoterless cat gene by agar dilution method. It is filed as functional.
For experiment [21], the system named is Escherichia coli. Put plainly: Ratio of MIC for pKK232-8-HS6-transformed Escherichia coli HB101 transformants to MIC for pKK232-8-HS3-transformed Escherichia coli HB101 transformants. In kind it is functional.
Experiment [22] deals with Escherichia coli. To be noted: 650.
Description: as §1

In the case of `CC1(C)S[C@@H]2[C@H](NC(=O)[C@H](N)c3ccccc3)C(=O)N2[C@H]1C(=O)O` [AMPICILLIN], the MIC in the experiment on Escherichia coli [1] is no less than 512 µg/mL; against Escherichia coli [2] it was no less than 512 µg/mL; with Escherichia coli [3] it was 8 µg/mL (≈ 22.9 µM); against Escherichia coli [4], 512 µg/mL (≈ 1470 µM); against Escherichia coli [5], 512 µg/mL (≈ 1470 µM).
Turning to `C[C@H]1COc2c(N3CCN(C)CC3)c(F)cc3c(=O)c(C(=O)O)cn1c23.C[C@H]1COc2c(N3CCN(C)CC3)c(F)cc3c(=O)c(C(=O)O)cn1c23.O` [LEVOFLOXACIN], the MIC against Escherichia coli [1] was 0.19 µg/mL; in the experiment with Escherichia coli [2] it was 0.19 µg/mL; in the experiment with Escherichia coli [4], 0.38 µg/mL; against Escherichia coli [5] it was 0.19 µg/mL.
Molecule `O=C(O)c1cn(C2CC2)c2cc(N3CCNCC3)c(F)cc2c1=O` [CIPROFLOXACIN] had an MIC with Escherichia coli [6] greater than 32 µg/mL.
For the molecule `CO/N=C(\C(=O)N[C@@H]1C(=O)N2C(C(=O)O)=C(COC(C)=O)CS[C@H]12)c1csc(N)n1` [CEFOTAXIME], the MIC is 8 µg/mL (≈ 17.6 µM) in the experiment on Escherichia coli [1]; 8 µg/mL (≈ 17.6 µM) in the experiment on Escherichia coli [2]; 32 µg/mL (≈ 70.3 µM) against Enterobacter cloacae [7]; 64 µg/mL (≈ 141 µM) in the experiment on Enterobacter cloacae [8]; no more than 0.06 µg/mL in the experiment with Escherichia coli [3]; 64 µg/mL (≈ 141 µM) in the experiment with Enterobacter cloacae [9]. The MIC was 0.125 µg/mL (≈ 0.274 µM) against Escherichia coli [4]; no more than 0.06 µg/mL with Escherichia coli [5]; 1 µg/mL (≈ 2.2 µM) with Escherichia coli [10]; no less than 128 µg/mL against Escherichia coli [11]; 32 µg/mL (≈ 70.3 µM) against Enterobacter cloacae [12]; 2 µg/mL (≈ 4.39 µM) against Citrobacter freundii.
With `O=C(N[C@H](CO)[C@H](O)c1ccc([N+](=O)[O-])cc1)C(Cl)Cl` [CHLORAMPHENICOL], the MIC in the experiment on Escherichia coli [13] was found to be 3 µg/mL (≈ 9.28 µM); with Escherichia coli [14] it was 8 µg/mL (≈ 24.8 µM); with Escherichia coli [16] it was 3 µg/mL (≈ 9.28 µM); against Escherichia coli [17] it was 96 µg/mL (≈ 297 µM); in the experiment on Escherichia coli [19] it was 8 µg/mL (≈ 24.8 µM); with Escherichia coli [20], 8 µg/mL (≈ 24.8 µM). Besides, the Ratio in the experiment on Escherichia coli [15], in the experiment on Escherichia coli [18] and with Escherichia coli [21] was 12 each time.
On to `COc1cc(Cc2cnc(N)nc2N)cc(OC)c1OC` [TRIMETHOPRIM], for which the MIC against Escherichia coli [1] was no less than 512 µg/mL; in the experiment on Escherichia coli [2], no less than 512 µg/mL; against Escherichia coli [3], no more than 0.06 µg/mL; against Escherichia coli [4], 0.25 µg/mL (≈ 0.861 µM); in the experiment with Escherichia coli [5], no more than 0.06 µg/mL.
Turning to `NC[C@H]1O[C@H](O[C@H]2[C@H](O)[C@@H](O[C@H]3O[C@H](CO)[C@@H](O)[C@H](N)[C@H]3O)[C@H](N)C[C@@H]2N)[C@H](N)C[C@@H]1O` [TOBRAMYCIN], the MIC in the experiment on Escherichia coli [1] is 8 µg/mL (≈ 17.1 µM); in the experiment with Escherichia coli [2], 8 µg/mL (≈ 17.1 µM); in the experiment on Escherichia coli [3], 0.25 µg/mL (≈ 0.535 µM); in the experiment with Escherichia coli [4], 8 µg/mL (≈ 17.1 µM); against Escherichia coli [5], 8 µg/mL (≈ 17.1 µM).
As for `Cc1cc(NS(=O)(=O)c2ccc(N)cc2)no1` [SULFAMETHOXAZOLE], the MIC was no less than 512 µg/mL with Escherichia coli [1]; no less than 512 µg/mL in the experiment on Escherichia coli [2]; no less than 512 µg/mL with Enterobacter cloacae [7]; no less than 512 µg/mL against Enterobacter cloacae [8]; 8 µg/mL (≈ 31.6 µM) in the experiment on Escherichia coli [3]; no less than 512 µg/mL in the experiment on Enterobacter cloacae [9]. Besides, the MIC with Escherichia coli [4], with Escherichia coli [5], against Escherichia coli [10], against Escherichia coli [11], with Enterobacter cloacae [12] and with Citrobacter freundii was no less than 512 µg/mL throughout.
As for `CC(C)(O/N=C(\C(=O)N[C@@H]1C(=O)N2C(C(=O)[O-])=C(C[n+]3ccccc3)CS[C@H]12)c1csc(N)n1)C(=O)O` [CEFTAZIDIME], the MIC with Escherichia coli [1] came to 8 µg/mL (≈ 14.6 µM); in the experiment on Escherichia coli [2], 32 µg/mL (≈ 58.5 µM); in the experiment on Enterobacter cloacae [7], 64 µg/mL (≈ 117 µM); against Enterobacter cloacae [8], 128 µg/mL (≈ 234 µM); against Escherichia coli [3] it was 0.125 µg/mL (≈ 0.229 µM); in the experiment with Enterobacter cloacae [9], 32 µg/mL (≈ 58.5 µM). In addition, the MIC in the experiment on Escherichia coli [4] stood at 0.125 µg/mL (≈ 0.229 µM); against Escherichia coli [5] it was 0.125 µg/mL (≈ 0.229 µM); with Escherichia coli [10] it was 4 µg/mL (≈ 7.32 µM); against Escherichia coli [11] it was 4 µg/mL (≈ 7.32 µM); in the experiment with Enterobacter cloacae [12], 128 µg/mL (≈ 234 µM); in the experiment with Citrobacter freundii, 4 µg/mL (≈ 7.32 µM).
Turning to `NCC[C@H](O)C(=O)N[C@@H]1C[C@H](N)[C@@H](O[C@H]2O[C@H](CN)[C@@H](O)[C@H](O)[C@H]2O)[C@H](O)[C@H]1O[C@H]1O[C@H](CO)[C@@H](O)[C@H](N)[C@H]1O` [AMIKACIN], the MIC in the experiment with Escherichia coli [1] was 4 µg/mL (≈ 6.83 µM); in the experiment with Escherichia coli [2], 4 µg/mL (≈ 6.83 µM); in the experiment with Escherichia coli [3], 0.5 µg/mL (≈ 0.854 µM); in the experiment on Escherichia coli [4], 2 µg/mL (≈ 3.42 µM); in the experiment on Escherichia coli [5] it was 2 µg/mL (≈ 3.42 µM).
As to `CN[C@@H]1[C@H](O[C@H]2[C@H](O[C@H]3[C@H](O)[C@@H](O)[C@H](N=C(N)N)[C@@H](O)[C@@H]3N=C(N)N)O[C@@H](C)[C@]2(O)C=O)O[C@@H](CO)[C@H](O)[C@H]1O` [STREPTOMYCIN], the MIC came to 8 µg/mL (≈ 13.8 µM) with Escherichia coli [1]; 8 µg/mL (≈ 13.8 µM) against Escherichia coli [2]; 1 µg/mL (≈ 1.72 µM) in the experiment on Escherichia coli [3]; 1 µg/mL (≈ 1.72 µM) in the experiment with Escherichia coli [4]; 2 µg/mL (≈ 3.44 µM) with Escherichia coli [5].
On to `NC[C@H]1O[C@H](O[C@H]2[C@H](O)[C@@H](O[C@H]3O[C@H](CO)[C@@H](O)[C@H](N)[C@H]3O)[C@H](N)C[C@@H]2N)[C@H](O)[C@@H](O)[C@@H]1O` [KANAMYCIN], for which the MIC against Escherichia coli [1] was determined as 64 µg/mL (≈ 132 µM); in the experiment with Escherichia coli [2], 64 µg/mL (≈ 132 µM); in the experiment with Escherichia coli [3] it was 0.5 µg/mL (≈ 1.03 µM); against Escherichia coli [4], 16 µg/mL (≈ 33 µM); in the experiment with Escherichia coli [5], 8 µg/mL (≈ 16.5 µM).
Turning to GENTAMICIN, the MIC was greater than 128 µg/mL in the experiment with Escherichia coli [22]; 2 µg/mL with Escherichia coli [1]; 2 µg/mL in the experiment on Escherichia coli [2]; 4 µg/mL against Enterobacter cloacae [7]; 8 µg/mL with Enterobacter cloacae [8]; 0.25 µg/mL with Escherichia coli [3]. The MIC was 4 µg/mL against Enterobacter cloacae [9]; 0.25 µg/mL in the experiment with Escherichia coli [4]; 8 µg/mL in the experiment on Escherichia coli [5]; greater than 128 µg/mL against Escherichia coli [11]; 8 µg/mL against Enterobacter cloacae [12]; 32 µg/mL against Citrobacter freundii.
